Measurements as given in article PMC10258794, “To Fold or Not to Fold: Diastereomeric Optimization of an α-Helical Antimicrobial Peptide” (Journal of Medicinal Chemistry, 2023).
≈ marks a conversion by molar mass, not a printed value. Read-outs that look alike come from different tables or passages of the source.

Tests used:
K. pneumoniae NCTC418 = system: K. pneumoniae NCTC418
In short: (§1)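 Growth inhibition is judged by eye after MTT addition, the MIC being the lowest compound concentration whose well stays yellow. Bacteria from overnight LB cultures are diluted in MH medium at pH 7.4 to roughly 5 × 10^5 CFU and incubated with doubling dilutions at 37 °C, unshaken, 16–20 h.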

A. baumannii ATCC19606 = system: A. baumannii ATCC19606
In short: as §1

S. aureus COL MRSA = conditions: for MIC S. aureus COL MRSA: MH broth pH 7.4, 16–20 h, 37 °C
In short: as §1

E. coli W3110 = system: E. coli W3110
In short: as §1

P. aeruginosa PAO1 = system: P. aeruginosa PAO1
In short: as §1

A549 cells = assay: Alamar blue cytotoxicity, A549; assay type: cell-based, human; conditions: 24 h, mean ± SD, n = 3, read-out: Toxicity on A549 lung cancern cells
Procedure: The A549 human lung adenocarcinoma cells are derived from a patient and were kindly given to us by Dr. Georgia Konstatinidou (Pharmacology Institute, Bern University). HEK293T cells were obtained from ATCC (CRL-11268). A549 and HEK293 were cultured in an incubator at 37 °C with 5% CO2 in RPMI-1640 (Gibco) and DMEM (Gibco) containing 10% fetal bovine serum (Thermo Fisher), 100 I.U./mL penicillin, and 100 μg/mL streptomycin (Gibco).
The viability of the cells was assessed with an AlamarBlue assay (ThermoFisher). Cells were seeded into 96-well plates, 4000 cells/well (HEK293) and 8000 cells/well (A549), the day before the experiment. Cells were then treated with the increasing concentration of the compound and incubated for 24 h at 37 °C in the presence of 5% CO2. The next day, the medium was removed and replaced by a 10% AlamarBlue solution in full growth medium (DMEM or RPMI-1640). The cells were incubated for 3–5 h at 37 °C with 5% CO2 in a humidified atmosphere. The fluorescence was then measured on a Tecan Infinite M1000 Pro plate reader at λex 560 nm and λem 590 nm. The value was normalized according to the untreated cells.

HEK293 cells = assay: Alamar blue cytotoxicity, HEK293; assay type: cell-based, human; conditions: 24 h, mean ± SD, n = 3, read-out: Toxicity on HEK293 cells
In short: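 Viability read by AlamarBlue fluorescence (560/590 nm) after 3–5 h with 10% reagent, relative to untreated controls. Beforehand, cells got rising compound doses for 24 h at 37 °C; seeding was 8000/well for A549 in RPMI-1640 and 4000/well for HEK293 in DMEM.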

Staphylococcus epidermis = assay: MIC broth microdilution, Staphylococcus epidermis; assay type: cell-based; conditions: pH 7.4
In short: as §1

P. aeruginosa PA14 = assay: microbe, parasite or virus in culture
In short: as §1

PA14 4.13 (phoQ) = assay: microbe, parasite or virus in culture; conditions: supplementary CSV
In short: as §1

Burkolderia cenocepacia = assay: microbe, parasite or virus in culture
Enterobacter cloacae = assay: microbe, parasite or virus in culture; conditions: pH 7.4
In short: as §1

P. aeruginosa ZEM-1A = assay: microbe, parasite or virus in culture; conditions: pH 7.4
In short: as §1

PA14 4.18 (pmrB) = assay: microbe, parasite or virus in culture; conditions: supplementary CSV
In short: as §1

PA14 2P4 (pmrB) = assay: microbe, parasite or virus in culture; conditions: supplementary CSV
In short: as §1

P. aeruginosa ZEM9A = assay: microbe, parasite or virus in culture; assay type: cell-based, Pseudomonas aeruginosa; conditions: pH 7.4
In short: as §1

[1] = 24 h, […] human serum in TRIS buffer pH 7.4, 37 °C
Procedure: Human serum was diluted in 0.1 M filtered TRIS buffer (pH 7.4) (25%, 1:3, v/v). Selected peptides were diluted in 0.1 M filtered TRIS buffer (pH 7.4) to a concentration of 400 μM, and 0.1 mg/mL 4- hydroxybenzoic acid was added as an internal standard. Aliquots of peptide solution (50 μL) were added to aliquots of serum (50 μL) in sterile Eppendorf tubes, to reach a peptide concentration of 200 μM during the assay. Samples were incubated at 37 °C under gentle stirring (350 rpm). Different samples (triplicates) were quenched at different time points (0/1/6/12/24 h) by precipitating serum proteins through the addition of ZnSO4·7 H2O/ACN (1:1) (0.1 M, 100 μL) and cooling in ice bath for 10 min. Protein precipitates were pelleted under centrifugation, and supernatants were then sampled and analyzed by LC–MS. Experiment controls included two references, one known to be degraded and one known to be undegraded. Peaks corresponding to the internal standard and the undegraded peptides were integrated, with the ratio peptide/standard at t = 0 h as 100%.

[2] = system: Stenotrophomonas maltophilia; assay: microbe, parasite or virus in culture; assay type: cell-based; conditions: pH 7.4
In short: as §1

K. pneumoniae Oxa-48 = assay: MIC broth microdilution, K. pneumoniae Oxa-48; assay type: cell-based, Klebsiella pneumoniae; conditions: MDR strain; MH broth pH 7.4, 16–20 h, 37 °C
In short: as §1

[3] = EYPG vesicle leakage assay; assay type: biochemical; conditions: 10 μg/mL of compound; 10 mM TRIS, 107 mM NaCl, pH 7.4
Procedure: 5(6)-carboxyfluorescein (CF) was purchased from Sigma. EYPC, EYPG, and a Mini-Extruder were purchased from Avanti Polar Lipids. Egg PC or Egg PG thin lipid layers were prepared by evaporating a solution of 100 mg of EYPC or EYPG in 4 mL of MeOH/CHCl3 (1:1) on a rotary evaporator at room temperature and then dried in vacuo overnight. […] Extravesicular components were removed by gel filtration (Sephadex G-50) with 10 mM TRIS, 107 mM NaCl, pH 7.4 buffer. Final conditions: ∼2.5 mM PC or PG; inside: 50 mM CF, 10 mM TRIS, 10 mM NaCl, pH 7.4 buffer; outside: 10 mM TRIS, 107 mM NaCl, pH 7.4. […] The CF efflux was monitored at λem 517 nm (λex 492 nm) as a function of time after addition of the desired volume of peptide from 2 mg/mL stock in mQ water at t = 45 s, 10 and 50 μg/mL were monitored for both EYPC and EYPG. […] Fluorescence intensities were then normalized to the maximal emission intensity using I(t) = (It – I0)/(I∞ – I0) where I0 = It at peptide addition, I∞ = It at saturation of lysis.

[4] = system: Pseudomonas aeruginosa, Klebsiella pneumoniae, Acinetobacter baumannii, Escherichia coli, and methicillin-resistant Staphylococcus aureus; conditions: summary of Table 1
In short: as §1

[5] = CD spectroscopy, α-helix content; assay type: physicochemical; conditions: 5 mM DPC in 7 mM PB buffer pH 7.4, Dichroweb Contin LL set 4
Procedure: CD experiments were measured on a Jasco J-715 spectropolarimeter. All the experiments were performed using Hellma Suprasil 110-QS 0.1 cm cuvettes. For each peptide, the measurements were performed in phosphate buffer (PB, pH = 7.4, 7 mM), 10% TFE, 20% TFE, 5 mM DPC. The buffer was degassed for 10 min under high vacuum before each set of experiments. The concentration of the peptides was 0.100 mg/mL, and each sample was measured in one accumulation. The scan rate was 20 nm/min, pitch was 0.5 nm, response was 16 s, and bandwidth was 1.0 nm. The nitrogen flow was kept >8 L/min. After each measurement, the cuvettes were washed successively with milli-Q H2O and PB (pH 7.4). The baseline was recorded under the same conditions and subtracted manually. Primary CD spectra were analyzed using DichroWeb[58] and Contin-LL method (set 4).[74]

[6] = EYPC vesicle leakage assay; assay type: biochemical; conditions: 10 μg/mL of compound; 10 mM TRIS, 107 mM NaCl, pH 7.4
In short: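 Egg PC or egg PG vesicles (~2.5 mM lipid) were loaded with 50 mM CF in 10 mM TRIS pH 7.4, with 10 mM TRIS/107 mM NaCl outside. Peptide at 10 or 50 μg/mL was added at 45 s, and CF efflux was followed at λex 492/λem 517 nm, normalized to complete lysis.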

human red blood cells = assay: Hemolysis assay (MHC)
Procedure: To determine the MHC stock solutions, 8 mg/mL peptide in PBS (pH 7.4) was prepared, and 50 μL was diluted serially by l/2 in 50 μL of PBS (pH 7.4) in a 96-well plate (Costar or Nunc, polystyrene, untreated). […] Plasma was discarded, and the pellet was re-suspended in a 15 mL Falcon tube in 5 mL of PBS. The washing was repeated three times, and the remaining pellet was re-suspended in 10 mL of PBS. The hRBC suspension (50 μL) was added to each well, and the plate was incubated at room temperature for 4 h. MHC end points were determined by visual determination of the wells after the incubation period. Controls on each plate included a blank medium control (50 μL PBS + 50 μL of hRBCs suspension) and a hemolytic activity control (mQ-deionized water 50 μL + 50 μL hRBC suspension).

[7] = MH broth pH 7.4, 16–20 h, 37 °C
[8] = supplementary CSV, ranges of Table 1 given as one number

## CC(C)C[C@@H](NC(=O)[C@@H](CC(C)C)NC(=O)[C@@H](CC(C)C)NC(=O)[C@H](CCCCN)NC(=O)[C@@H](CC(C)C)NC(=O)[C@@H](CC(C)C)NC(=O)[C@H](CCCCN)NC(=O)[C@@H](CC(C)C)NC(=O)[C@@H](CC(C)C)NC(=O)[C@H](CCCCN)NC(=O)[C@@H](N)CCCCN)C(N)=O [dln69, KKllKllKlll]
S. aureus Newman; [7]
  MIC S. aureus Newman: 1 µg/mL (≈ 0.757 µM)
S. aureus Newman; supplementary CSV
  MIC S. aureus Newmann: 1 µg/mL (≈ 0.757 µM)
K. pneumoniae NCTC418; [7]
  MIC K. pneumoniae NCTC418: 4 µg/mL (≈ 3.03 µM)
K. pneumoniae NCTC418; [8]
  MIC K. pneumoniae NCTC418: 4 µg/mL (≈ 3.03 µM)
A. baumannii ATCC19606; [7]
  MIC A. baumannii ATCC19606: 2 µg/mL (≈ 1.51 µM)
A. baumannii ATCC19606; [8]
  MIC A. baumannii ATCC19606: 2 µg/mL (≈ 1.51 µM)
S. aureus COL MRSA
  MIC S. aureus COL MRSA: 2 µg/mL (≈ 1.51 µM)
S. aureus COL MRSA; [8]
  MIC S. aureus COL: 2 µg/mL (≈ 1.51 µM)
E. coli W3110; [7]
  MIC E. coli W3110: 0.5 to 1 µg/mL
E. coli W3110; [8]
  MIC E. coli W3110: 1 µg/mL (≈ 0.757 µM)
P. aeruginosa PAO1; [7]
  MIC P. aeruginosa PAO1: 2 to 4 µg/mL
P. aeruginosa PAO1; [8]
  MIC P. aeruginosa PAO1: 3 µg/mL (≈ 2.27 µM)
A549 cells
  IC50: 7.2 ± 6.5 µM
HEK293 cells
  IC50: 87 ± 2 µM
Staphylococcus epidermis
  MIC Staphylococcus epidermis: 4 µg/mL (≈ 3.03 µM)
P. aeruginosa PA14; [7]
  MIC PA14: 1 µg/mL (≈ 0.757 µM)
P. aeruginosa PA14; supplementary CSV
  MIC P. aeruginosa PA14: 1 µg/mL (≈ 0.757 µM)
PA14 4.13 (phoQ)
  MIC P. aeruginosa PA14 4.13: 2 µg/mL (≈ 1.51 µM)
Burkolderia cenocepacia; MDR strain, MH broth pH 7.4, 16–20 h, 37 °C
  MIC Burkolderia cenocepacia: >64 µg/mL
Burkolderia cenocepacia; supplementary CSV
  MIC B. cenocepacia: > 64 µg/mL
Enterobacter cloacae
  MIC Enterobacter cloacae: 4 µg/mL (≈ 3.03 µM)
P. aeruginosa ZEM-1A
  MIC ZEM-1A: 4 µg/mL (≈ 3.03 µM)
PA14 4.18 (pmrB)
  MIC P. aeruginosa PA14 4.18: 8 µg/mL (≈ 6.05 µM)
PA14 2P4 (pmrB)
  MIC P. aeruginosaPA14 2P4: 16 µg/mL (≈ 12.1 µM)
P. aeruginosa ZEM9A
  MIC ZEM9A: 8 µg/mL (≈ 6.05 µM)
[1]
  serum stability: entirely degraded
[2]
  MIC Stenotrophomonas maltophilia: 2 µg/mL (≈ 1.51 µM)
K. pneumoniae Oxa-48
  MIC K. pneumoniae Oxa-48: 8 µg/mL (≈ 6.05 µM)

## H-KKLLKLLKLLLKKLLKLLKLLL-NH2 [2ln65]
[3]
  EYPG vesicle leakage (%): 73%
K. pneumoniae NCTC418; [7]
  MIC K. pneumoniae NCTC418: >64 µg/mL
K. pneumoniae NCTC418; NCTC418
  MIC K. pneumoniae NCTC418: >64 µg/mL
[4]
  MIC, span over the five bacterial strains: entirely inactive
A. baumannii ATCC19606; [7]
  MIC A. baumannii ATCC19606: >64 µg/mL
S. aureus COL MRSA
  MIC S. aureus COL MRSA: >64 µg/mL
E. coli W3110; [7]
  MIC E. coli W3110: >64 µg/mL
P. aeruginosa PAO1; [7]
  MIC P. aeruginosa PAO1: >64 µg/mL
[5]
  α-helix content (%): 91%
[6]
  EYPC vesicle leakage (%): 40%
Human red blood cells
  MHC: < 15.6 µg/mL
Human red blood cells; pH 7.4
  MHC: <15.6 µg/mL
